Experimental data taken from US12077503B2, “Substituted cyclic amides and their use as herbicides” (FMC CORPORATION, priority 2015, dated 2024).

Assays:
Format in all cases: in vivo
[1] = test system: ryegrass, Italian (Italian ryegrass, Lolium multiflorum); experiment: Test A postemergence; details: postemergence
Method in brief: (§1)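 Treatment is preemergence as a directed soil spray after planting, or postemergence at the one- to two-leaf stage, with test chemical in a non-phytotoxic solvent mixture plus surfactant. Plants stay in the greenhouse about 10 d before visual injury scoring on a 0 to 100 scale versus untreated controls.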

[2] = test system: blackgrass (Alopecurus myosuroides); experiment: Test A postemergence; details: postemergence
Method in brief: as §1

[3] = test system: Galium (catchweed bedstraw, Galium aparine); experiment: Test A postemergence; details: postemergence
Method in brief: as §1

[4] = test system: ragweed (common ragweed, Ambrosia elatior); experiment: Test A postemergence; details: postemergence
Method in brief: as §1

[5] = test system: barnyardgrass (Echinochloa crus-galli); experiment: Test A postemergence; details: postemergence
Method in brief: as §1

[6] = test system: pigweed (Amaranthus retroflexus); experiment: Test A postemergence; details: postemergence
Method in brief: as §1

[7] = test system: wheat (Triticum aestivum); experiment: Test A postemergence; details: postemergence
Method in brief: as §1

Kochia (Kochia scoparia) [8] = experiment: Test A postemergence; details: postemergence
Method in brief: as §1

corn (Zea mays) = experiment: Test A postemergence; details: postemergence
Method in brief: as §1

[9] = test system: giant foxtail (Setaria faberii); experiment: Test A postemergence; details: postemergence
Method in brief: as §1

[10] = test system: sedge, umbrella (small-flower umbrella sedge, Cyperus difformis); experiment: Test B flooded paddy test; details: Flood, 0 to 100 scale where 0 is no effect and 100 is complete control, 13 to 15 d
Method in brief: (§2)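 Response scored visually against untreated controls, 0 = no effect and 100 = complete control, 13–15 d after treatment in the greenhouse. Compounds added to paddy water held 3 cm above soil surface. Treatment given at 2-leaf stage.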

[11] = test system: ducksalad (Heteranthera limosa); experiment: Test B flooded paddy test; details: Flood, 0 to 100 scale where 0 is no effect and 100 is complete control, 13 to 15 d
Method in brief: as §2

rice (Oryra sativa) = experiment: Test B flooded paddy test; details: Flood, 0 to 100 scale where 0 is no effect and 100 is complete control, 13 to 15 d
Method in brief: as §2

[12] = test system: barnyardgrass (Echinochloa crus-galli); experiment: Test B flooded paddy test; details: Flood, 0 to 100 scale where 0 is no effect and 100 is complete control, 13 to 15 d
Method in brief: as §2

[13] = test system: ryegrass, Italian (Italian ryegrass, Lolium multiflorum); experiment: Test A preemergence
Method in brief: as §1

[14] = test system: ragweed (common ragweed, Ambrosia elatior); experiment: Test A preemergence
Method in brief: as §1

[15] = test system: barnyardgrass (Echinochloa crus-galli); experiment: Test A preemergence
Method in brief: as §1

[16] = test system: pigweed (Amaranthus retroflexus); experiment: Test A preemergence
Kochia (Kochia scoparia) [17] = experiment: Test A preemergence
Method in brief: as §1

[18] = test system: giant foxtail (Setaria faberii); experiment: Test A preemergence
Method in brief: as §1

[19] = 125 g ai/ha, visual injury rating on 0 to 100 scale (0 no effect, 100 complete control), approx. 10 d
[20] = 500 g ai/ha, 0 to 100 scale, 0 no effect, 100 complete control
[21] = 125 g ai/ha, preemergence, 0 to 100 scale (0 no effect, 100 complete control)
[22] = Preemergence, 500 g ai/ha, visual injury approx. 10 d
[23] = 125 g ai/ha, visual rating after approx. 10 d, 0 to 100 scale (0 no effect, 100 complete control)
[24] = 500 g ai/ha, visual injury, 0 to 100 scale (0 no effect, 100 complete control), approx. 10 d
[25] = 125 g ai/ha, Preemergence, visual injury after approximately 10 d, 0 to 100 scale where 0 is no effect and 100 is complete control
[26] = 500 g ai/ha, preemergence, 0 to 100 scale, 0 = no effect, 100 = complete control

CS(=O)(=O)c1ccccc1NC(=O)C1C(=O)NCC1c1ccc(Br)cc1 (stereo not drawn) [Compound 452]
60: Plant response rating, Blackgrass [2, 20] | Foxtail, Giant plant response rating [9, 19] | Ragweed plant response rating (0 to 100 scale, 0 is no effect, 100 is complete control) [14, 22] | Plant response rating, Barnyardgrass [15, 21] | Plant response rating, Kochia (Kochia (Kochia scoparia) [17]; [21])
0: Ryegrass, Italian plant response rating [1, 19] | Blackgrass plant response rating [2, 19] | Ragweed plant response rating [4, 19] | Wheat plant response rating [7, 19] | Corn plant response rating (corn (Zea mays); [19]) | Plant response rating, Corn (corn (Zea mays); [20]) | Plant response rating, Sedge, Umbrella ([10]; 250 g ai/ha) | Plant response rating, Rice (rice (Oryra sativa); 250 g ai/ha) | Plant response rating, Barnyardgrass ([12]; 250 g ai/ha) | Plant response rating, Ryegrass, Italian [13, 21]
80: Plant response rating, Foxtail, Giant [9, 20] | Plant response rating, Pigweed [16, 21]
100: Plant response rating, Ducksalad ([11]; 250 g ai/ha)
50: Galium plant response rating [3, 19] | Plant response rating, Galium [3, 20] | Pigweed plant response rating [6, 19] | Kochia plant response rating (Kochia (Kochia scoparia) [8]; [19])
90: Barnyardgrass plant response rating (0 to 100 scale, 0 is no effect, 100 is complete control) [15, 22] | Pigweed plant response rating (0 to 100 scale, 0 is no effect, 100 is complete control) [16, 22] | Plant response rating, Foxtail, Giant [18, 21] | Foxtail, Giant plant response rating (0 to 100 scale, 0 is no effect, 100 is complete control) [18, 22]
70: Plant response rating, Barnyardgrass [5, 20] | Plant response rating, Pigweed [6, 20] | Plant response rating, Kochia (Kochia (Kochia scoparia) [8]; [20]) | Kochia plant response rating (0 to 100 scale, 0 is no effect, 100 is complete control) (Kochia (Kochia scoparia) [17]; [22])
30: Plant response rating, Ragweed [4, 20] | Ryegrass, Italian plant response rating (0 to 100 scale, 0 is no effect, 100 is complete control) [13, 22]
20: Plant response rating, Ryegrass, Italian [1, 20] | Barnyardgrass plant response rating [5, 19] | Plant response rating, Wheat [7, 20] | Plant response rating, Ragweed [14, 21]

O=C1NCC(c2cccc(C(F)(F)F)c2)C1C(=O)Nc1ccc(F)cc1Cl (racemic) [Compound 676]
0: Plant response rating, Ryegrass, Italian [1, 23] | Plant response rating, Galium [3, 23] | Plant response rating, Ragweed [4, 23] | Plant response rating, Ragweed [4, 24] | Plant response rating, Pigweed [6, 23] | Plant response rating, Pigweed [6, 24] | Plant response rating, Wheat [7, 23] | Plant response rating, Kochia (Kochia (Kochia scoparia) [8]; [23]) | Plant response rating, Kochia (Kochia (Kochia scoparia) [8]; [24]) | Plant response rating, Corn (corn (Zea mays); [23]) | Plant response rating, Sedge, Umbrella ([10]; 500 g ai/ha) | Plant response rating, Ryegrass, Italian [13, 25] | Plant response rating, Ragweed [14, 25] | Plant response rating, Ragweed [14, 26] | Plant response rating, Pigweed [16, 25] | Plant response rating, Pigweed [16, 26] | Plant response rating, Kochia (Kochia (Kochia scoparia) [17]; [25]) | Plant response rating, Kochia (Kochia (Kochia scoparia) [17]; [26])
40: Plant response rating, Blackgrass [2, 24] | Plant response rating, Galium [3, 24]
15: Plant response rating, Rice (rice (Oryra sativa); 500 g ai/ha)
90: Plant response rating, Barnyardgrass [15, 26] | Plant response rating, Foxtail, Giant [18, 26]
20: Plant response rating, Ryegrass, Italian [1, 24] | Plant response rating, Blackgrass [2, 23] | Plant response rating, Wheat [7, 24] | Plant response rating, Foxtail, Giant [9, 23] | Plant response rating, Ryegrass, Italian [13, 26]
50: Plant response rating, Barnyardgrass [5, 23] | Plant response rating, Corn (corn (Zea mays); [24])
70: Plant response rating, Barnyardgrass [15, 25]
85: Plant response rating, Ducksalad ([11]; 500 g ai/ha)
80: Plant response rating, Barnyardgrass [5, 24] | Plant response rating, Foxtail, Giant [9, 24] | Plant response rating, Barnyardgrass ([12]; 500 g ai/ha) | Plant response rating, Foxtail, Giant [18, 25]
